Measured values taken from patent US9382222B2, “Benzyl sulfonamide derivatives as RORc modulators” (Genentech, Inc., priority 2012, dated 2016).

biological target: T1, RORc ligand binding domain (Homo sapiens, UniProt P51449); assay: In Vitro RORc Ligand Binding Assay; settings: displacement of 25-[3H]hydroxycholesterol (6 nM), 0.6 ug/mL RORc receptor, 3 h at 25° C.
T1 construct: host or cells: E. coli
T1 sequence (P51449 269-508 limits assumed): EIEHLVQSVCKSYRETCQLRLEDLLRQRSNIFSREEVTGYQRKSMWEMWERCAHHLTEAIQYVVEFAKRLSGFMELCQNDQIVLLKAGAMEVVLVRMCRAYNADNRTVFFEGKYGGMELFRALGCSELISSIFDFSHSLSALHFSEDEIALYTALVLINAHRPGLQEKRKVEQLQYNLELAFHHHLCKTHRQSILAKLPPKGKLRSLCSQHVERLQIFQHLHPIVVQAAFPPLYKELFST
Experimental: In Vitro RORc Ligand Binding Assay This assay was used to determine a compound's potency in inhibiting activity of RORc by determining, Kiapp, IC50, or percent inhibition values. […] On day of the assay, 100 uL of 0.05% CHAPS (in deionized H2O) was added to all wells of the GFB Unifilter plate and allowed soak for 1 h. A wash buffer of 50 mM HEPES (pH 7.4), 150 mM NaCl, and 5 mM MgCl2 was prepared to wash the filter plate. To prepare an assay buffer, BSA was added to the wash buffer to reach 0.01% and DTT was added to reach 1 mM. […] The 20× compound stocks were diluted in DMSO with Assay Buffer 4-fold to reach 5× the final test concentration in 25% DMSO (10 uL compound+30 uL Assay Buffer). Solutions were mixed by aspiration several times with a pipette set on 50 uL volume. For the assay, 10 uL of 5× compound stock solutions in 25% DMSO were added to the assay plate in duplicate. For two point screening, 10 mM stock compound solutions were diluted in DMSO to obtain 200 uM (20× the high test concentration) and then diluted 10-fold further to reach 20 uM (20× the low test concentration). The 20× stocks were diluted 4-fold with Assay Buffer (10 uL compound+30 uL Assay Buffer) to reach 5× the test concentrations (50 uM and 5 uM) and 10 uL were added to two assay plates for the duplicate wells. […] Add 20 uL to all wells to reach 6 nM final concentration in the assay. […] Stock receptor solution was diluted in assay buffer to obtain 1.5 ug/mL in Assay Buffer. 20 uL was added to all wells. For No Receptor samples, 20 uL Assay Buffer was substituted for receptor solution. […] Following addition to the wells, the plates were incubated 3 h at 25° C. Using a Packard Filtermate Harvester, the filter plate were washed 4 times following transfer of the incubated samples. Plates were dry-filtered completely (2 h at 50° C. or overnight at room temperature). 50 uL Microscint 0 was added to all wells and read on Topcount protocol Inverted. […] For NSB wells, 1 uM 25-hydroxycholesterol was also present.

Row | SMILES | IC50 [nM]
1 | CN(C)S(=O)(=O)N1CCN(c2ccc(S(=O)(=O)N(Cc3ccccc3C(F)(F)F)CC(F)F)cc2)CC1 [Compound 85, 4-{4-[(2,2-Difluoro-ethyl)-(2-trifluoromethyl-benzyl)-sulfamoyl]-phenyl}-piperazine-1-sulfonic acid dimethylamide] | 116
2 | CC(=O)N1CCN(c2ccc(S(=O)(=O)N(Cc3ccccc3C(F)(F)F)CC(C)(C)C)cc2)CC1 [Compound 88, 4-(4-Acetyl-piperazin-1-yl)-N-(2,2-dimethyl-propyl)-N-(2-trifluoromethyl-benzyl)-benzenesulfonamide] | 39
3 | CC(C)CN(Cc1ccc(OC(F)(F)F)cc1)S(=O)(=O)c1ccc(NC2CCN(S(C)(=O)=O)CC2)cc1 [Compound 90, N-Isobutyl-4-(1-methanesulfonyl-piperidin-4-ylamino)-N-(4-trifluoromethoxy-benzyl)-benzenesulfonamide] | 11
4 | CC(C)CN(Cc1ccc(Cl)cc1)S(=O)(=O)c1ccc(NC2CCN(S(C)(=O)=O)CC2)cc1 [Compound 91, N-(4-Chloro-benzyl)-N-isobutyl-4-(1-methanesulfonyl-piperidin-4-ylamino)-benzenesulfonamide] | 10

Continued by falling IC50, values first:

Row | IC50 [nM] | SMILES
5 | 3100 | CC(C)CN([C@@H](CO)c1ccccc1)S(=O)(=O)c1ccc(N2CCN(S(C)(=O)=O)CC2)cc1 [Compound 92, N-((R)-2-Hydroxy-1-phenyl-ethyl)-N-isobutyl-4-(4-methanesulfonyl-piperazin-1-yl)-benzenesulfonamide]
6 | 70 | CC(=O)N1CCN(c2ccc(S(=O)(=O)N(Cc3ccccc3C(F)(F)F)C3(C)CCC3)cc2)CC1 [Compound 86, 4-(4-Acetyl-piperazin-1-yl)-N-(1-methyl-cyclobutyl)-N-(2-trifluoromethyl-benzyl)-benzenesulfonamide]
7 | 9 | CS(=O)(=O)N1CCC(Oc2ccc(S(=O)(=O)N(Cc3ccccc3C(F)(F)F)C3CCC3)cc2)CC1 [Compound 89, N-Cyclobutyl-4-(1-methanesulfonyl-piperidin-4-yloxy)-N-(2-trifluoromethyl-benzyl)-benzenesulfonamide]
8 | 6 | CC(C)CN(Cc1ccccc1C(F)(F)F)S(=O)(=O)c1ccc(NC2CCN(S(C)(=O)=O)CC2)cc1 [Compound 84, N-Isobutyl-4-(1-methanesulfonyl-piperidin-4-ylamino)-N-(2-trifluoromethyl-benzyl)-benzenesulfonamide]
